Experimental data published in PubChem BioAssay (NCI).
“And” between values parts separate entries of the source, which are not always exact repeats. Identical values can stand only once.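 Five concentrations, 48 hours, 96-well plates. Here, GI50 denotes the concentration required for 50% inhibition of growth. Definition used: TGI = concentration required for complete inhibition of growth.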

Legend:
Experiment in all cases: inhibition of tumour cell growth, NCI panel, 48 h
[1] = test system: DU-145 prostate
[2] = test system: SK-MEL-5 melanoma
[3] = test system: HCT-15 colon
[4] = test system: IGROV1 ovarian
[5] = test system: A498 renal
[6] = test system: HT29 colon
[7] = test system: UO-31 renal
[8] = test system: RPMI-8226 leukemia
[9] = test system: HCT-116 colon
[10] = test system: MOLT-4 leukemia

Cc1ccc2oc(=O)c3c(O)c4cccc(OC5OC(C)C6O[C@@H](c7ccccc7)OC6C5OC5OC(C)C(O)C(O)C5O)c4c4oc(=O)c1c2c34 (some centres undefined)
TGI [1]: 1.27 µM | GI50 [2]: 0.114 µM | TGI [2]: 1.09 µM and 0.7 µM | GI50 [3]: 0.261 µM | TGI [3]: 1.5 µM and 5.01 µM | GI50 [4]: 0.0315 µM | TGI [4]: 1.39 µM and 1.32 µM | GI50 [5]: 0.167 µM | TGI [5]: 1.22 µM and 0.95 µM | TGI [6]: 5.12 µM | GI50 [7]: 0.4 µM | TGI [7]: 1.99 µM and 7.47 µM | TGI [8]: 0.888 µM | GI50 [9]: 0.0257 µM | GI50 [10]: 0.00436 µM and 0.0137 µM | TGI [10]: 0.109 µM and 0.161 µM

O=C(O)COc1ccc(OCC(=O)O)cc1
GI50 [1]: 0.325 µM | TGI [1]: 12.7 µM | GI50 [2]: 0.362 µM | TGI [2]: 2.31 µM | GI50 [3]: 9.43 µM | TGI [3]: > 100 µM | GI50 [4]: 1.8 µM | TGI [4]: 33 µM | GI50 [5]: 1.06 µM | TGI [5]: 4.87 µM | GI50 [6]: 0.709 µM | TGI [6]: 11.6 µM | GI50 [7]: 5.4 µM | TGI [7]: 27.5 µM | GI50 [8]: 0.343 µM | TGI [8]: 6.76 µM | GI50 [9]: 0.612 µM | TGI [9]: 10.3 µM | GI50 [10]: 0.0557 µM | TGI [10]: 23.5 µM

COc1ccc(Nc2ncnc3ccc(-c4cncc(NS(C)(=O)=O)c4)cc23)cc1Cl
GI50 [1]: 3.78 µM | TGI [1]: 15.2 µM | GI50 [2]: 1.61 µM | TGI [2]: 3.21 µM | GI50 [3]: 3.6 µM | TGI [3]: 14.1 µM | GI50 [4]: 1.4 µM | TGI [4]: 4.46 µM | GI50 [5]: 1.8 µM | TGI [5]: 4.44 µM | GI50 [6]: 2.07 µM | TGI [6]: 6.93 µM | GI50 [7]: 3.04 µM | TGI [7]: 22.5 µM | GI50 [8]: 2.11 µM | TGI [8]: 4.9 µM | GI50 [9]: 2.05 µM | TGI [9]: 5.69 µM | GI50 [10]: 1.5 µM | TGI [10]: 4 µM

COc1ccc(CSC2=C(C#N)C(=O)NC3(CCCCC3)S2)cc1
TGI [1]: > 100 µM | TGI [2]: > 100 µM | TGI [3]: > 100 µM | TGI [4]: > 100 µM | TGI [5]: > 100 µM | TGI [6]: > 100 µM | TGI [7]: > 100 µM | TGI [8]: > 100 µM | TGI [9]: > 100 µM | TGI [10]: > 100 µM

CC(C)C[C@H](NC(=O)Cn1cccc(CNC(=O)c2ccccc2)c1=O)B(O)O
GI50 [1]: 0.734 µM | TGI [1]: 45.1 µM | GI50 [2]: 0.158 µM | TGI [2]: 0.842 µM | GI50 [3]: 4.7 µM | TGI [3]: 37.3 µM | GI50 [4]: 4.01 µM | TGI [4]: 45.8 µM | GI50 [5]: 0.136 µM | TGI [5]: 0.706 µM | GI50 [6]: 0.352 µM | TGI [6]: 11.5 µM | GI50 [7]: 4 µM | TGI [7]: 23 µM | GI50 [8]: 0.352 µM | GI50 [9]: 0.337 µM | TGI [9]: 2.65 µM | GI50 [10]: 0.289 µM | TGI [10]: > 100 µM

COc1c(OC)c(OC)c2c(=O)cc(-c3ccc(OC(C)C)cc3)oc2c1OC
TGI [1]: > 50.8 µM | TGI [2]: 25.5 µM | TGI [3]: > 54.8 µM | TGI [4]: > 56.8 µM | TGI [5]: 36.9 µM | TGI [6]: > 49.4 µM | TGI [7]: > 47.3 µM | TGI [8]: 23.7 µM | TGI [9]: 23.6 µM | TGI [10]: 23.8 µM

O=C1CC(c2cccc(Cl)c2)Oc2ccccc21 (centres undefined)
TGI [1]: 38.2 µM | TGI [2]: 37.6 µM | TGI [3]: 49 µM | TGI [4]: 50.7 µM | TGI [5]: 46.3 µM | TGI [6]: 33.3 µM | TGI [7]: 27.6 µM | TGI [8]: 9.83 µM | TGI [9]: 31.3 µM

CCC[CH2][Sn]([CH2]CCC)([CH2]CCC)/[C](=C/[Si](C)(C)c1ccccc1)c1ccc2c(c1)OCO2
GI50 [1]: 21.7 µM | TGI [1]: 48.6 µM | GI50 [2]: 15.8 µM | TGI [2]: 30.1 µM | GI50 [3]: 20.5 µM | TGI [3]: 51.8 µM | GI50 [4]: 16.9 µM | TGI [4]: 37.9 µM | GI50 [5]: 30.5 µM | TGI [5]: 70.6 µM | GI50 [6]: 19.2 µM | TGI [6]: 55.3 µM | GI50 [7]: 18.6 µM | TGI [7]: 33.6 µM | GI50 [8]: 20.7 µM | TGI [8]: 77.8 µM | GI50 [9]: 17.9 µM | TGI [9]: 41 µM | GI50 [10]: 17.4 µM | TGI [10]: 83.3 µM

O=C1NC(=O)C(c2cccc(Cl)c2)=C1Nc1ccc(Cl)c(C(=O)O)c1
GI50 [1]: > 25 µM | TGI [1]: > 25 µM | GI50 [2]: > 25 µM | TGI [2]: > 25 µM | GI50 [3]: > 25 µM | TGI [3]: > 25 µM | GI50 [4]: > 25 µM | TGI [4]: > 25 µM | GI50 [5]: > 25 µM | TGI [5]: > 25 µM | GI50 [6]: > 25 µM | TGI [6]: > 25 µM | GI50 [7]: > 25 µM | TGI [7]: > 25 µM | GI50 [8]: > 25 µM | TGI [8]: > 25 µM | GI50 [9]: > 25 µM | TGI [9]: > 25 µM | GI50 [10]: > 25 µM | TGI [10]: > 25 µM

FC(F)c1ncc(-c2ccc(C(F)(F)F)cc2)c(NC2CCCCCC2)n1
GI50 [1]: > 10 µM | TGI [1]: > 10 µM | GI50 [2]: > 10 µM | TGI [2]: > 10 µM | GI50 [3]: > 10 µM | TGI [3]: > 10 µM | GI50 [4]: > 10 µM | TGI [4]: > 10 µM | GI50 [5]: > 10 µM | TGI [5]: > 10 µM | GI50 [6]: > 10 µM | TGI [6]: > 10 µM | GI50 [7]: > 10 µM | TGI [7]: > 10 µM | GI50 [8]: > 10 µM | TGI [8]: > 10 µM | GI50 [9]: > 10 µM | TGI [9]: > 10 µM | GI50 [10]: > 10 µM | TGI [10]: > 10 µM

Fc1ccc2c(c1)C1=C(CCC2)C(c2ccc(Cl)cc2)NC(=S)N1 (centres undefined)
GI50 [1]: 49.1 µM | TGI [1]: > 100 µM | GI50 [2]: 28.4 µM | TGI [2]: > 100 µM | GI50 [3]: 26.2 µM | TGI [3]: > 100 µM | GI50 [4]: 10.3 µM | TGI [4]: > 100 µM | GI50 [5]: 43.6 µM | TGI [5]: > 100 µM | GI50 [6]: 49.9 µM | TGI [6]: > 100 µM | GI50 [7]: 16.9 µM | TGI [7]: > 100 µM | GI50 [8]: 13.1 µM | TGI [8]: 53.8 µM | GI50 [9]: 26.1 µM | TGI [9]: > 100 µM | GI50 [10]: 24.5 µM | TGI [10]: > 100 µM

COc1ccc(C2NN=C3c4ccccc4CCC32)cc1 (centres undefined)
GI50 [1]: 19.2 µM | TGI [1]: 72.6 µM | GI50 [2]: 3.62 µM | TGI [2]: 17.1 µM | GI50 [3]: 3.7 µM | TGI [3]: > 100 µM | GI50 [4]: 2.7 µM | TGI [4]: 21.4 µM | GI50 [5]: 19.4 µM | TGI [5]: 65 µM | GI50 [6]: 2.26 µM | TGI [6]: 12.5 µM | GI50 [7]: 24.1 µM | TGI [7]: > 100 µM | GI50 [8]: 5.36 µM | TGI [8]: 85.4 µM | GI50 [9]: 6.85 µM | TGI [9]: 30.2 µM | GI50 [10]: 4.04 µM | TGI [10]: > 100 µM

COc1cc(F)c(F)cc1C(=O)c1cnc(NC2CCN(S(C)(=O)=O)CC2)nc1N
GI50 [1]: 5.66 µM | TGI [1]: > 21.6 µM | GI50 [2]: 2.07 µM | TGI [2]: > 14.4 µM | GI50 [3]: 3.46 µM | TGI [3]: > 25 µM | GI50 [4]: 5.11 µM | TGI [4]: 24.5 µM | GI50 [5]: 4.62 µM | TGI [5]: 11.9 µM | GI50 [6]: 3.7 µM | TGI [6]: > 25 µM | GI50 [7]: 4.75 µM | TGI [7]: > 19.8 µM | GI50 [8]: 3.66 µM | TGI [8]: > 16.2 µM | GI50 [9]: 2.16 µM | TGI [9]: > 25 µM | GI50 [10]: 3.4 µM | TGI [10]: 20.4 µM

CN(C)C=N[C@@H](C(=O)O)c1ccccc1
TGI [1]: > 100 µM | TGI [2]: > 100 µM | TGI [3]: > 100 µM | TGI [4]: > 100 µM | TGI [5]: > 100 µM | TGI [6]: > 100 µM | TGI [7]: > 100 µM | TGI [8]: > 100 µM | TGI [9]: > 100 µM | TGI [10]: > 100 µM
